Test results taken from patent US11402382B2, “Diagnostic and therapeutic methods for cancer” (Genentech, Inc., priority 2017, dated 2022).

Tested on: previously untreated metastatic renal cell carcinoma (mRCC)
Assay: IMmotion150: PFS and ORR in PD-L1 IHC and gene expression signature (Teff, Angio, Myeloid) subgroups
Format: in vivo, human
Details: for PFS HR (95% CI) vs Sun: unstratified
Experimental: PD-L1 status on tumor-infiltrating immune cells (IC) was assessed in the phase II IMmotion150 study by immunohistochemistry (IHC) using the anti-human PD-L1 rabbit monoclonal antibody, SP142, and scored using an identical IHC scoring criteria (IC1/2/3=≥1% of tumor-infiltrating lymphocytes are PD-L1-positive; IC2/3=≥5% of tumor-infiltrating lymphocytes are PD-L1-positive) (n=297). PD-L1 status can be assessed as described in International Patent Application Publication Nos. WO 2016/183326 and WO 2016/196298. Mutation evaluations by whole exome sequencing (WES) and gene expression analyses by RNA-Seq (n=263) were also performed. For the gene expression analyses, gene expression levels were evaluated for T effector and IFNγ response (Teff) genes (CD8A, IFNG, PRF1, EOMES, and PD-L1), as well as for angiogenesis-related (Ang) genes (VEGFA, KDR, ESM1, PECAM1, ANGPTL4, and CD34), and myeloid inflammation-related (Myeloid) genes (IL6, CXCL1, CXCL2, CXCL3, CXCL8, and PTGS2). The Teff genes at low expression levels (i.e., below the median expression levels of the evaluated Teff genes; “Teff low”) and high expression levels (i.e., at or above the median expression levels of the evaluated Teff genes; “Teff high”) were evaluated in relation to progress-free survival (PFS) per RECIST v.1.1 via Independent Review Facility (IRF) assessment. The Ang genes at low expression levels (i.e., below the median expression levels of the evaluated Ang genes; “Ang low”) and high expression levels (i.e., at or above the median expression levels of the evaluated Ang genes; “Ang high”) were also evaluated in relation to PFS per RECIST v.1.1 via IRF assessment. The Myeloid genes at low expression levels (i.e., below the median expression levels of the evaluated Myeloid genes; “Myeloid low”) and high expression levels (i.e., at or above the median expression levels of the evaluated Myeloid genes; “Myeloid high”) were also evaluated in relation to PFS per RECIST v.1.1 via IRF assessment. To determine the median expression levels, first a Z-score was calculated for the normalized expression of all of the genes in a group. The median level of all the Z-scores across the dataset was used as a reference level to identify biomarker high versus biomarker low subgroups.
Tumor specimens from patients acquired <12 months prior to study treatment were required for enrollment in the study. Tissue was prospectively tested for PD-L1 expression on IC by a central laboratory using the SP142 IHC assay (VENTANA, Tucson, Ariz.). IC staining was defined as follows: any discernible PD-L1 staining of any intensity in IC covering <1% or absent, between ≥1% and <5%, between ≥5% and <10%, or ≥10% of tumor area.
Kaplan-Meier methodology was used to estimate the median PFS for each treatment arm, and Kaplan-Meier curves were produced. The primary analysis was triggered when 140 INV-PFS events occurred among patients treated with atezolizumab+bevacizumab and with sunitinib or among patients treated with atezolizumab alone and with sunitinib, whichever occurred later. […] The stratification factors included prior nephrectomy, tumor PD-L1 status, and MSKCC score and were determined based on data from the electronic case report form; if such data were missing, data collected by the IxRS at the time of randomization were used. Tumor specimens were prospectively tested for PD-L1 expression on ICs by a central laboratory using the SP142 IHC assay (VENTANA, Tucson, Ariz.). IC staining was defined as follows: any discernible PD-L1 staining of any intensity in IC covering <1% or absent (ICO), between ≥1% and <5% (IC1), between ≥5% and <10% (IC2), or ≥10% (IC3) of tumor area occupied by tumor cells, associated intratumoral, and contiguous peri-tumoral desmoplastic stroma.
Whole transcriptome profiles were generated for 263 patients using TRUSEQ® RNA Access technology (ILLUMINA®). RNAseq reads were first aligned to ribosomal RNA sequences to remove ribosomal reads. […]

[1] = Teff^HighMyeloid^High vs Teff^HighMyeloid^Low

Molecule	ORR (Angio^High subgroup)	PFS HR (95% CI), within arm analysis (Angio^High vs Angio^Low)	ORR (Angio^Low subgroup)	PFS HR (95% CI), within arm analysis (Myeloid^High vs Myeloid^Low)	PFS HR (95% CI), within arm analysis (Teff^High vs Teff^Low)	PFS HR (95% CI), within arm analysis [1]	PFS HR (95% CI) vs Sunitinib (Ang high (Angio^High) subgroup)	PFS HR (95% CI) vs Sunitinib (Ang low (Angio^Low) subgroup)	PFS HR (95% CI) vs Sunitinib (Myeloid^High subgroup)	PFS HR (95% CI) vs Sunitinib (Myeloid^Low subgroup)	PFS HR (95% CI) vs Sun (PD-L1 IHC IC1/2/3)	PFS HR (95% CI) vs Sun (PD-L1 IHC IC2/3)	PFS HR (95% CI) vs Sunitinib (Teff high subgroup (at or above median))	PFS HR (95% CI) vs Sunitinib (Teff low subgroup (below median))	PFS HR (95% CI) vs Sunitinib (Teff^High Myeloid^High subgroup)	PFS HR (95% CI) vs Sunitinib (Teff^High Myeloid^Low subgroup)
CCN(CC)CCNC(=O)c1c(C)[nH]c(/C=C2\C(=O)Nc3ccc(F)cc32)c1C [Sunitinib, N-[2-(Diethylamino)ethyl]-5-[(Z)-(5-fluoro-2-oxo-1,2-dihydro-3H-indol-3-ylidene)methyl]-2,4-dimethyl-1H-pyrrole-3-carboxamide]	45%	0.31	10%	0.82	1.31	1.10										
Atezo: anti-PD-L1 antibody atezolizumab (CAS Registry Number: 1422185-06-5), Genentech, also known as MPDL3280A		0.74		2.98	0.83	3.82	1.46	0.75	2.03	0.53	0.97	0.54	0.85	1.33	1.81	0.47
